In ChEMBL document CHEMBL5518165, “M335, a novel small-molecule STING agonist activates the immune response and exerts antitumor effects” (Eur J Med Chem, 2024):
Activity calls are given as the source filed them. The calls are words filed in the database; no cut-off is given here.

Legend:
[1] = target: Stimulator of interferon genes protein (Homo sapiens) (UniProt Q86WV6); test: Agonist activity at STING in human THP-1 cells assessed as increase in LC3 protein level at 20 uM measured for 4 hrs by Western blotting analysis; type: cell-based; settings: filed as agonist
Chain of Stimulator of interferon genes protein (Homo sapiens) (Q86WV6 whole entry): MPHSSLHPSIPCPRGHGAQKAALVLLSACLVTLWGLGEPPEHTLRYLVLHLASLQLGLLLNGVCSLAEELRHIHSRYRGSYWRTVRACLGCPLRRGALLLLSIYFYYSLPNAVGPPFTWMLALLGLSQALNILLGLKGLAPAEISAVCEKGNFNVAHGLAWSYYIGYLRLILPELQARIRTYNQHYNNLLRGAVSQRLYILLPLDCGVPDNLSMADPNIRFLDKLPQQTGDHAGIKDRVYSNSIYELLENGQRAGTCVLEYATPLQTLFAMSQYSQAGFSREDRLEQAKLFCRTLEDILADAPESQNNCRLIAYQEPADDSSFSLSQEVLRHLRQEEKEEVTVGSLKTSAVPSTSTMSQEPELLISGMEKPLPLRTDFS

CT26 [2] = test: Antitumor activity against mouse CT26 cells allografted in […] mouse assessed as reduction in tumor development at 300 ug, IT administered every 2 days; type: functional, cell-based; settings: dose 300.0 µg
MC-38 [3] = test: Antitumor activity against mouse MC38 cells allografted in C57/BL6 mouse assessed as increase in NK cells in tumor tissue at 300 ug, IT administered every 2 days by flow cytometry analysis (reference value: 14%); type: functional; settings: dose 300 µg, time 2 day
[4] = target: Stimulator of interferon genes protein (Homo sapiens) (UniProt Q86WV6); test: Agonist activity at STING in human THP-1 cells at 50 uM; type: cell-based; settings: filed as agonist
[5] = target: T1, Stimulator of interferon genes protein (Mus musculus) (UniProt Q3TBT3); test: Agonist activity at STING in MEF cells assessed as STING translocation by measuring aggregation of green fluorescence incubated for 1 hr by laser scanning confocal microscope analysis; type: cell-based; settings: filed as agonist
T1 sequence (whole entry): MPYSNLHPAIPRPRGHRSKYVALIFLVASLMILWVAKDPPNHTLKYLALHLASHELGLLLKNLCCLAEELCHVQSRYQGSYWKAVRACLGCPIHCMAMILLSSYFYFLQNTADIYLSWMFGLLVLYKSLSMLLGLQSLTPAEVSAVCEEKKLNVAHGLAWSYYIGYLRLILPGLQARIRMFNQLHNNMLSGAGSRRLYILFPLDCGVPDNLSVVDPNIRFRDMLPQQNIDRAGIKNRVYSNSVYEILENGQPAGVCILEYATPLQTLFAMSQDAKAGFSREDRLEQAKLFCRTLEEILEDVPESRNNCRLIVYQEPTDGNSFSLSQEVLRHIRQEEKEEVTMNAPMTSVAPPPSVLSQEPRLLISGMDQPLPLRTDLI

[6] = target: Stimulator of interferon genes protein (Homo sapiens) (UniProt Q86WV6); test: Agonist activity at STING in human THP-1 cells assessed as upregulation of type-1 interferon signaling pathway by gene ontology analysis; type: cell-based; settings: filed as agonist
MC-38 [7] = test: Antitumor activity against mouse MC38 cells allografted in C57/BL6 mouse assessed as increase in IL-6 level in serum at 300 ug, IT administered every 2 days by ELISA; type: functional, cell-based; settings: dose 300.0 µg
[8] = target: Stimulator of interferon genes protein (Homo sapiens) (UniProt Q86WV6); test: Agonist activity at STING in human THP-1 cells assessed as increase in STING oligomerization by Western blotting analysis; type: cell-based; settings: filed as agonist, dose 5-40 µM
[9] = target: Stimulator of interferon genes protein (Homo sapiens) (UniProt Q86WV6); test: Agonist activity at STING in human THP-1 cells assessed as increase in CXCL10 mRNA level at 20 uM measured for 4 hrs by qPCR analysis; type: cell-based; settings: filed as agonist
CT26 [10] = test: Antitumor activity against mouse CT26 cells […] mouse assessed as augmentation of CD3+ T cells in spleen at 20 mg/kg, ip administered every 2 days (reference value: 13.9%); type: functional
[11] = target: T1, Stimulator of interferon genes protein (Mus musculus); test: Agonist activity at STING in MEF cells assessed as nuclear transposition of phosphorylated IRF3 incubated for 1 hr by laser scanning confocal microscope analysis; type: cell-based; settings: filed as agonist
MC-38 [12] = test: Antitumor activity against mouse MC38 cells allografted in C57/BL6 mouse assessed as increase in CD45+ T cells in spleen at 300 ug, IT administered every 2 days by flow cytometry analysis; type: functional, cell-based; settings: dose 300.0 µg
CT26 [13] = test: Antitumor activity against mouse CT26 cells allografted in […] mouse assessed as augmentation of CD45+ cells in spleen at 5 mg/kg, ip administered every 2 days (reference value: 35.1%); type: functional
[14] = target: Stimulator of interferon genes protein (Homo sapiens) (UniProt Q86WV6); test: Agonist activity at STING in human THP-1 cells assessed as upregulation of IL-6/JAK/STAT3 signaling pathway by GSEA; type: cell-based; settings: filed as agonist
THP-1 = test: Upregulation of IRF3 phosphorylation in STING-knockout human THP-1 cells at 20 uM measured for 4 hrs by Western blotting analysis; type: functional, cell-based
MC-38 [15] = test: Antitumor activity against mouse MC38 cells allografted in C57/BL6 mouse assessed as increase in CD45+ T cells in tumor tissue at 300 ug, IT administered every 2 days by flow cytometry analysis; type: functional, cell-based; settings: dose 300.0 µg
[16] = target: Stimulator of interferon genes protein (Homo sapiens) (UniProt Q86WV6); test: Agonist activity at STING in human THP-1 cells assessed as increase in IRF3 phosphorylation at 20 uM measured for 4 hrs by Western blotting analysis; type: cell-based; settings: filed as agonist
[17] = target: Stimulator of interferon genes protein (Homo sapiens) (UniProt Q86WV6); test: Agonist activity at STING in human THP-1 cells assessed as TBK1 phosphorylation at 20 uM measured for 4 hrs in presence of H-151 by Western blotting analysis; type: cell-based
Human alphaherpesvirus 1 [18] = test: Antiviral activity against HSV-1-GFP infected in human THP-1 cells assessed as reduction in proportion of infected cells pre-infected […] for 24 hrs followed by compound addition and measured after 6 hrs by flow cytometry analysis; type: functional, organism-based; settings: dose 10-30 µM
[19] = target: Stimulator of interferon genes protein (Homo sapiens) (UniProt Q86WV6); test: Agonist activity at STING in human THP-1 cells assessed as increase in TBK1 phosphorylation at 20 uM measured for 4 hrs by Western blotting analysis; type: cell-based; settings: filed as agonist
CT26 [20] = test: Antitumor activity against mouse CT26 cells […] mouse assessed as augmentation of CD3+ T cells in spleen at 10 mg/kg, ip administered every 2 days (reference value: 13.9%); type: functional
[21] = target: Stimulator of interferon genes protein (Homo sapiens) (UniProt Q86WV6); test: Agonist activity at STING in human THP-1 cells assessed as increase in LC3-II protein level incubated for 4 hrs by Western blotting analysis; type: cell-based; settings: filed as agonist, dose 5-40 µM
MC-38 [22] = test: Induction of apoptosis in mouse MC38 cells allografted in C57/BL6 mouse a at 300 ug, IT administered every 2 days; type: functional, cell-based; settings: dose 300.0 µg
[23] = Toxicity in C57/BL6 mouse allografted with mouse B16-F10 cells assessed as change in body weight at 300 ug, IT administered every 2 days; type: cell-based; settings: in vivo, other, 48 h, dose 300 µg
[24] = Toxicity in […] mouse allografted with mouse CT26 cells assessed as change in body weight at 300 ug, IT administered every 2 days; type: cell-based; settings: in vivo, other, 48 h, dose 300 µg
[25] = target: Stimulator of interferon genes protein (Homo sapiens) (UniProt Q86WV6); test: Agonist activity at STING in human THP-1 cells assessed as decrease in STING monomer level at 5 to 40 uM by Western blotting analysis; type: cell-based; settings: filed as agonist, dose 5-40 µM
CT26 [26] = test: Antitumor activity against mouse CT26 cells […] mouse assessed as augmentation of CD45+ cells in spleen at 10 mg/kg, ip administered every 2 days (reference value: 35.1%); type: functional
Human alphaherpesvirus 1 [27] = test: Antiviral activity against HSV-1-GFP infected in human THP-1 cells assessed as reduction in viral infection pre-infected with virus for 24 hrs followed by compound addition and measured after 6 hrs by flow cytometry analysis; type: functional, organism-based; settings: dose 10-30 µM
[28] = target: Stimulator of interferon genes protein (Homo sapiens) (UniProt Q86WV6); test: Binding affinity to STING CTD (unknown origin) at 3.125 to 200 uM by surface plasmon resonance analysis; settings: filed as agonist, dose 3.125-200 µM
[29] = target: Stimulator of interferon genes protein (Homo sapiens) (UniProt Q86WV6); test: Agonist activity at STING in human THP-1 cells assessed as upregulation of IFNgamma related genes by GSEA; type: cell-based; settings: filed as agonist
[30] = target: Stimulator of interferon genes protein (Homo sapiens) (UniProt Q86WV6); test: Binding affinity to human STING CTD assessed as decrease in protein stability by Western blotting analysis; settings: filed as agonist
[31] = target: Stimulator of interferon genes protein (Homo sapiens) (UniProt Q86WV6); test: Agonist activity at STING in human THP-1 cells assessed as upregulation of interferon stimulated genes at 20 uM by RNA sequencing analysis; type: cell-based; settings: filed as agonist

Structure (SMILES): CC(NCCC(c1ccccc1)c1ccccc1)c1ccccc1 (configuration not stated) [FENDILINE]
- Activity [1]: Active
- Activity (CT26 [2]): Active
- Activity (MC-38 [3]): 24%
- Activity [4]: Active
- Activity [5]: Active
- Activity [6]: Active
- Activity (MC-38 [7]): Active
- Activity [8]: Dose-Dependent Effect
- Activity [9]: Active
- Activity (CT26 [10]): 41.4%
- Activity [11]: Active
- Activity (MC-38 [12]): Active
- Activity (CT26 [13]): 42.5%
- Activity [14]: Active
- Activity (THP-1): inactive
- Activity (MC-38 [15]): Active
- Activity [16]: Active
- Activity [17]: inactive
- Activity (Human alphaherpesvirus 1 [18]): Dose-Dependent Effect
- Activity [19]: Active
- Activity (CT26 [20]): 28.6%
- Activity [21]: Dose-Dependent Effect
- Activity (MC-38 [22]): inactive
- Activity [23]: Non-Toxic
- Activity [24]: Non-Toxic
- Activity [25]: Active
- Activity (CT26 [26]): 56.3%
- Activity (Human alphaherpesvirus 1 [27]): Dose-Dependent Effect
- Activity [28]: Active
- Activity [29]: Active
- Activity [30]: Active
- Activity [31]: Active
